In patent US20100160556A1, “GLP-1 Fusion Peptides Conjugated to Polymer(s), Their Production and Use” (priority 2007, published 2010):
Ends that are not written are not given here.

Tests used:
DPPIV [1] = target: T1, DPPIV (Homo sapiens, UniProt P27487); assay: In vitro plasma stability (kinetic test method), GLP-1 (active) ELISA; conditions: for remaining at 9 h, 1 μM: human, pH 7.8
Target sequence in this assay (P27487 whole entry): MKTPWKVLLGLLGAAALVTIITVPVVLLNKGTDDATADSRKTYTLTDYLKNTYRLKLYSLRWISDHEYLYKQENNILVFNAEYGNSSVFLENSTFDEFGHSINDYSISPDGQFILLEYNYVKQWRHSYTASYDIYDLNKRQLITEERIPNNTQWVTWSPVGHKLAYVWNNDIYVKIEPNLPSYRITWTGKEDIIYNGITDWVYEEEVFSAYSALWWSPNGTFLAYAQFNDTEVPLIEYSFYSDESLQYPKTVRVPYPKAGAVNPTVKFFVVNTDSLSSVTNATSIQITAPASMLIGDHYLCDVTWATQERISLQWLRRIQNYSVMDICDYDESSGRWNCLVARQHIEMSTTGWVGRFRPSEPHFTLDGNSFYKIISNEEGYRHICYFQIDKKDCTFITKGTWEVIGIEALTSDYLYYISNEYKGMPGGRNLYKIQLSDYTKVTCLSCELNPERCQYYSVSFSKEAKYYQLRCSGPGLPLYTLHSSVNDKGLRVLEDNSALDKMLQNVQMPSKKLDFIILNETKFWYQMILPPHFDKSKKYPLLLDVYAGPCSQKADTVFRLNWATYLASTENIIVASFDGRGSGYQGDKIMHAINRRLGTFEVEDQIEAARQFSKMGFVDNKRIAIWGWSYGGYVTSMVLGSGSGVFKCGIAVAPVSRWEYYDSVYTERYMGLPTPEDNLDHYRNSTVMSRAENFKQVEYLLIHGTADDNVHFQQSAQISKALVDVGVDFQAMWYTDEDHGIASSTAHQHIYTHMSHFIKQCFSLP
Text: Results are from triplicates in at least two independent experiments.

GLP-1 receptor = target: T2, GLP-1 receptor (Homo sapiens, UniProt P43220); assay type: cell-based
T2 construct: expressed in transfected cells; host or cells: CHO cell line
T2 sequence (P43220 24-463, species assumed): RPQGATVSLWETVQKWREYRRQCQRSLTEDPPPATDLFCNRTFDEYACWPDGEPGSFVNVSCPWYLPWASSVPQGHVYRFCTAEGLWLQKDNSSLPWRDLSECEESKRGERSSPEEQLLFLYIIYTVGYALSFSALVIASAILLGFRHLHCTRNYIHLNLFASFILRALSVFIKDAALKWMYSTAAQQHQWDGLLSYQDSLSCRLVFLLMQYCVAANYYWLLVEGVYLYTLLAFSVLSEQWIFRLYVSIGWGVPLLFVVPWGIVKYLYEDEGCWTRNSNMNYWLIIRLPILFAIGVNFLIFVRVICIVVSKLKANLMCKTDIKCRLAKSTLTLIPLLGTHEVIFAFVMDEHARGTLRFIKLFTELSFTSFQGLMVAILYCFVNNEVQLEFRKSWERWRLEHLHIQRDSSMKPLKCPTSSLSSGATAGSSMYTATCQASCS
Procedure: GLP-1 Bioassay cAMP Increase
The in vitro bioactivity was tested in a GLP-1 receptor transfected CHO cell line by determining the half maximum effective dose (ED50)

DPPIV [2] = target: T1, DPPIV; assay: In vitro human plasma stability of GLP-1 CM peptides; conditions: 20 ng/ml, 37° C., 3 hours
Target sequence in this assay (P27487 39-766 limits assumed): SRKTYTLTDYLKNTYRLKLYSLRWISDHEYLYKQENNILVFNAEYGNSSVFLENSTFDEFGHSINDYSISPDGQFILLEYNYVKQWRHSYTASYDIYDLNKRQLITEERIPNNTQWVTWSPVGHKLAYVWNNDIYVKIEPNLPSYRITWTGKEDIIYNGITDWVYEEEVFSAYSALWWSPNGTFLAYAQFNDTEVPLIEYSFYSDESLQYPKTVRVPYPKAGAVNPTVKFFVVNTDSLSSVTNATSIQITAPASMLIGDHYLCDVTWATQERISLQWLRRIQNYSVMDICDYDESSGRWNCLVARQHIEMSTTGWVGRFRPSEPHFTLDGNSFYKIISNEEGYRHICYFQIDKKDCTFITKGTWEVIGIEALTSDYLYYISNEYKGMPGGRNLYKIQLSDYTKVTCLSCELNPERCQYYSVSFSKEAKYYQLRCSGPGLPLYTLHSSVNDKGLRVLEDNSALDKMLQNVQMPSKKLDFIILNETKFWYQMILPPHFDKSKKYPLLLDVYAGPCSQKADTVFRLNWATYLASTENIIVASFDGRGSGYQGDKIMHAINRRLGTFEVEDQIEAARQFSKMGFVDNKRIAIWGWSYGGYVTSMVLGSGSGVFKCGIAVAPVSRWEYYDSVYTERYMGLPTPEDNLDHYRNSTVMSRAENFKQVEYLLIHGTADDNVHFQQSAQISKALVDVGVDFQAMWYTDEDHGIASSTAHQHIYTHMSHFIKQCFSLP
Text: Dipeptidylpeptidase activity of the plasma was inhibited by an DPP-IV inhibitor (#DPP4, Biotrend).

[3] = system: type II diabetic mice (C57BL/Ks-Lepr db/db); assay: In vivo bioactivity in type II diabetic mice; conditions: 5 μg peptide s.c. twice a day, day 2, 4, 7, 10
Procedure: 11-week-old type II diabetic mice (C57BL/Ks-Lepr^db/db, Harlan) were treated with 5 μg peptide by subcutaneous injection twice a day at 9 a.m. and 5 p.m. (n=5 per group). Blood glucose was measured before (day 0) and after treatment with GLP^CM peptides (Day 2, 4, 7, 10) at 10 a.m. after an overnight fastening period. Data were presented in relation to blood glucose levels measured at day 0.
Best results were obtained with recombinant SEQ ID NO:6 (CM1) and synthetic SEQ ID NO:8 (CM3). In FIG. 9 (y-axis) the relative effect of the treatment is shown. Blood glucose at day ═O was set to 1. Untreated animals undergo continuous increase in blood glucose level over time, whereas animals treated with inventive peptides display grosso modo a continuous decrease of the blood glucose level over time.

[4] = system: diabetic C57BL/KsJ@Rj-db (db/db) mice; assay: Dose-efficacy study in diabetic mice; assay type: in vivo
Procedure: A sixth group was treated with saline only. 7 animals were treated per group. Blood glucose was determined from tail bleeds directly before, 1 hour and 4 hours after injection.
The results are shown in dose-response curves according to FIG. 12 ([…] (GLP-1), FIG. 12B (CM1), FIG. 12C (CM3) and FIG. 12D (CM3-ANA01)). For every test substance a graph was prepared with the percentage difference of the blood glucose in relation to the start value for the different concentrations. […] Both models are sigmoidal fit models suitable for dose response evaluation. For every peptide the plasma glucose ED50 values (single s.c. dose in μg/mouse) have been determined from the percentage decrease of blood glucose.
The fall in plasma glucose and the corresponding significance levels are given for the time period 1 hour (@1 h) and 4 hours (@4 h) after peptide injection. Differences have been observed in the long-term efficacy of the peptides.

[5] = system: C57BL/KsJ@Rj-db (db/db) mice; assay: Long-term treatment of db/db mice; assay type: in vivo
Procedure: Peptides or vehicle will be given once daily (group A-D) between 2°°-3°° p m. subcutaneously in the skin fold of the back. The regimen was continued for 18 weeks. From week 12 to 18 treatment was done twice a day in 6 of 12 animals per group.
Various parameters of the mice were investigated, i.e. health status (1), body weight (2), food consumption (3), blood glucose (4), glucose tolerance test (5), insulin data (6), glycosylated hemoglobin (7), pathology (8), and restimulation of T cells (9). • Health status (1) was good in all groups, no side effects of the treatment have been seen. • Body weight (2) was lower in all treated groups after 18 weeks of treatment (FIG. 13). […] The mean values of 12 animals per group are plotted. […] The relative body weight increase of 12 animals per group after a treatment of 122 days is plotted. […] Non-fasted blood glucose level (1 hour after peptide injection) is shown in FIG. 15A, i.e. the effect of a treatment with saline (A), CM1 (B), CM3-ANA01 (C) or exendin (D) on the non-fasted blood glucose levels. Blood glucose was measured from a tail bleed 1 hour after s.c. injection of saline (A) or the peptides CM1 (B), CM3-ANA01 (C) or exendin (D) in a concentration of 24 nmol/kg. […] Blood glucose was measured from a tail bleed after a 12-hour overnight fast 18 hours after s.c. injection of the test substances. Fasted blood glucose level 18h after peptide injection is reduced in the CM1 and CM3-ANA01 group. • An i.p. glucose tolerance test (5) (IPGTT) was conducted after 8 weeks of treatment on mice of the groups A-D. The basal blood glucose value (0 min) of 12 hour fasted animals has been determined by tail bleed followed by an s.c. injection of the test substance and an i.p. injection of 20% glucose solution (1g glucose per kg). Blood glucose has been further on determined 15, 30, 45, 60, 90 and 120 minutes after glucose injection. […] The serum was analysed for insulin with the Insulin Mouse Ultrasensitive ELISA (Cat.# EIA-3440, DRG). […]

BALB/c mice [6] = conditions: mouse, in vivo
Procedure: (§1) The trial was done in BALB/c mice receiving 5 repeated injections (70 μg peptide/dose, i.v.) over 22d (n=5).
(§2) Spleens of the treated and control mice were explanted, T-cells isolated and stimulated with increasing amounts of antigene. Proliferative recall response is measured.

BALB/c mice [7] = assay: In vivo immunogenicity study; conditions: 5 repeated injections, 70 μg peptide/dose, i.v., over 22d
Procedure: as §1, §2

diabetic db/db mice = assay: In vivo bioactivity of PEGylated peptide in diabetic db/db mice

Substance: HAEGTFTSDVSSYLEGQAAKEFIAWLVKGRGRRDAAAAVAIAEELG [CM3-ANA03]
- in vitro plasma stability (comparison) (DPPIV [1]; 10% human plasma, 37° C.): strongly reduced stability compared to CM3

Substance: HAEGTFTSDVSSYLEGQAAKEFIAWLVKGRGAADFPEEVAIAEELG [CM3-ANA01]
- ED50 (half maximum effective dose), cAMP increase (GLP-1 receptor): 159 µM
- active GLP-1 as a % of the 0 h value after 9 h (DPPIV [1]; 1 μM peptide, 10% human plasma, 37° C., 9 h): 84%
- in vitro plasma stability (comparison) (DPPIV [1]; 10% human plasma, 37° C.): higher plasma stability than CM3
- remaining at 9 h, 1 μM (DPPIV [1]; 10% human plasma): 84%

Substance: HAEGTFTSDVSSYLEGQAAKEFIAWLVKGRGRRDFPEEVAIAEELG [CM3]
- ED50 (half maximum effective dose), cAMP increase (GLP-1 receptor): 187 µM
- stability in human plasma in vitro (DPPIV [2]): significantly stabilized
- remaining at 9 h, 1 μM (DPPIV [1]; 10% human plasma): 63%

Substance: GLP-1(7-37)—IP2-RR-GLP1(7-37) [CM1]
- anti-hyperglycemia effect (blood glucose relative to day 0) [3]: anti-hyperglycemia effect
- ED50 (plasma glucose) ([4]; single s.c. dose, 1 h measurements, percentage decrease of blood glucose): 0.61 μg/mouse
- fall in plasma glucose @1 h ([4]; single s.c. injection of 1.1-3.0 nmol peptide, versus control, 1 hour): 50% ± 14%
- fall in plasma glucose @4 h ([4]; single s.c. injection of 1.1-3.0 nmol peptide, versus control, 4 hours): 0%
- food consumption ([5]; 24 nmol/kg s.c., 122 day treatment period, compared to the control): significantly lower
- fasted blood glucose level ([5]; 12-hour overnight fast, 18h after peptide injection): reduced
- non fasted blood glucose level compared to control ([5]; 1h after s.c. peptide injection, 24 nmol/kg): 55%
- clinically relevant immunogenicity (BALB/c mice [6]): absence of any clinically relevant immunogenicity
- toxicity (BALB/c mice [7]): no toxicity

Substance: PEG-CM3-ANA08: CM3-ANA08 covalently conjugated to unbranched 40 kDa mPEG maleimido propionamide via thiol of the C-terminal cysteine (HAEGTFTSDVSSYLEGQAAKEFIAWLVKGRGRRDFPEEVAIAEELGC)
- ED50 relative to CM3 (lowered in vitro bioactivity) (GLP-1 receptor; GLP-1 receptor transfected CHO cell line): approximately 5 times
- signs of toxicity (diabetic db/db mice; mouse, in vivo): No signs of toxicity
- blood glucose decrease (diabetic db/db mice; treated versus non-treated group): significant blood glucose decrease
- peptide detected in the GLP-1 active ELISA (DPPIV [1]; 0 hours): 19%
